Test results taken from ChEMBL document CHEMBL3286225, “Novel carboline derivatives as potent antifungal lead compounds: design, synthesis, and biological evaluation” (ACS Med Chem Lett, 2014).
Converted amounts (≈) assume the structure as drawn.

How the values were obtained:
Format in all cases: functional
Trichophyton rubrum = assay: Antifungal activity against Trichophyton rubrum Cmccftla after 7 days by serial dilution method; details: 168 h
Nannizzia gypsea = assay: Antifungal activity against Microsporum gypseum Cmccfmza after 7 days by serial dilution method; details: 168 h
Pichia kudriavzevii = assay: Antifungal activity against Candida krusei 0710397 after 7 days by serial dilution method; details: Pichia kudriavzevii, 0710397, 168 h
Cryptococcus neoformans = assay: Antifungal activity against Cryptococcus neoformans 32609 after 72 hrs by serial dilution method; details: Cryptococcus neoformans, 32609, 72 h
Candida albicans = assay: Antifungal activity against fluconazole-sensitive Candida albicans SC5314 after 24 hrs by serial dilution method; details: SC5314, 24 h
Candida tropicalis = assay: Antifungal activity against Candida tropicalis after 7 days by serial dilution method; details: 168 h
Candida parapsilosis = assay: Antifungal activity against Candida parapsilosis ATCC 22019 after 24 hrs by serial dilution method; details: Lodderomyces parapsilosis, ATCC 22019, 24 h
Nakaseomyces glabratus = assay: Antifungal activity against Candida glabrata 537 after 24 hrs by serial dilution method; details: Nakaseomyces glabratus, 537, 24 h
Aspergillus fumigatus = assay: Antifungal activity against Aspergillus fumigatus 07544 after 7 days by serial dilution method; details: Aspergillus fumigatus, 07544, 168 h

SMILES | MIC80 (Trichophyton rubrum) | MIC80 (Nannizzia gypsea) | MIC80 (Pichia kudriavzevii) | MIC80 (Cryptococcus neoformans) | MIC80 (Candida albicans) | MIC80 (Candida tropicalis) | MIC80 (Candida parapsilosis) | MIC80 (Nakaseomyces glabratus) | MIC80 (Aspergillus fumigatus)
Cc1ccc2c(c1)c1c(n2CCCOc2ccc(F)cc2)CCNC1 | 4 µg/mL (≈ 11.8 µM) | 4 µg/mL (≈ 11.8 µM) | 16 µg/mL (≈ 47.3 µM) | 16 µg/mL (≈ 47.3 µM) | 4 µg/mL (≈ 11.8 µM) | 64 µg/mL (≈ 189 µM) | 16 µg/mL (≈ 47.3 µM) |  | 
COc1ccc2c(c1)c1c(n2CCCOc2ccc(Cl)cc2)CCN(C)C1 | 8 µg/mL (≈ 20.8 µM) | 8 µg/mL (≈ 20.8 µM) |  | 8 µg/mL (≈ 20.8 µM) | 32 µg/mL (≈ 83.1 µM) |  | 32 µg/mL (≈ 83.1 µM) | > 64 µg/mL | 32 µg/mL (≈ 83.1 µM)
Fc1ccc(OCCCCCn2c3c(c4cc(F)ccc42)CNCC3)cc1 | 32 µg/mL (≈ 86.4 µM) | 8 µg/mL (≈ 21.6 µM) | 4 µg/mL (≈ 10.8 µM) | 16 µg/mL (≈ 43.2 µM) | 16 µg/mL (≈ 43.2 µM) | 4 µg/mL (≈ 10.8 µM) | 16 µg/mL (≈ 43.2 µM) |  | 
Fc1ccc(OCCCn2c3c(c4cc(F)ccc42)CNCC3)cc1 | 8 µg/mL (≈ 23.4 µM) | 8 µg/mL (≈ 23.4 µM) | 4 µg/mL (≈ 11.7 µM) | 8 µg/mL (≈ 23.4 µM) | 8 µg/mL (≈ 23.4 µM) | 16 µg/mL (≈ 46.7 µM) | 16 µg/mL (≈ 46.7 µM) |  | 
CCCN1CCc2c(c3cc(Cl)ccc3n2CCCOc2ccc(Cl)cc2)C1 | > 64 µg/mL | 16 µg/mL (≈ 38.3 µM) |  | 16 µg/mL (≈ 38.3 µM) | > 64 µg/mL |  | 64 µg/mL (≈ 153 µM) | 16 µg/mL (≈ 38.3 µM) | > 64 µg/mL
Fc1ccc2c(c1)c1c(n2CCCOc2c(F)cccc2F)CCNC1 | 2 µg/mL (≈ 5.55 µM) | 1 µg/mL (≈ 2.77 µM) | 4 µg/mL (≈ 11.1 µM) | 8 µg/mL (≈ 22.2 µM) | 4 µg/mL (≈ 11.1 µM) | 16 µg/mL (≈ 44.4 µM) | 64 µg/mL (≈ 178 µM) |  | 
Fc1ccc(F)c(OCCCn2c3c(c4cc(F)ccc42)CNCC3)c1 | 8 µg/mL (≈ 22.2 µM) | 2 µg/mL (≈ 5.55 µM) | 4 µg/mL (≈ 11.1 µM) | 16 µg/mL (≈ 44.4 µM) | 4 µg/mL (≈ 11.1 µM) | 16 µg/mL (≈ 44.4 µM) | 64 µg/mL (≈ 178 µM) |  | 
Fc1ccc(NCCCn2c3c(c4cc(F)ccc42)CNCC3)cc1 | 32 µg/mL (≈ 93.7 µM) | 16 µg/mL (≈ 46.9 µM) | 16 µg/mL (≈ 46.9 µM) | 32 µg/mL (≈ 93.7 µM) | 8 µg/mL (≈ 23.4 µM) | 64 µg/mL (≈ 187 µM) | 16 µg/mL (≈ 46.9 µM) |  | 
Fc1ccc2c(c1)c1c(n2CCCOc2ccc(F)c(F)c2F)CCNC1 | 8 µg/mL (≈ 21.1 µM) | 4 µg/mL (≈ 10.6 µM) | 4 µg/mL (≈ 10.6 µM) | 4 µg/mL (≈ 10.6 µM) | 8 µg/mL (≈ 21.1 µM) | 4 µg/mL (≈ 10.6 µM) | 64 µg/mL (≈ 169 µM) |  | 
Cc1ccccc1OCCCn1c2c(c3cc(F)ccc31)CNCC2 | 4 µg/mL (≈ 11.8 µM) | 4 µg/mL (≈ 11.8 µM) | 16 µg/mL (≈ 47.3 µM) | 4 µg/mL (≈ 11.8 µM) | 4 µg/mL (≈ 11.8 µM) | 64 µg/mL (≈ 189 µM) | 16 µg/mL (≈ 47.3 µM) |  | 
Fc1ccc(OCCCn2c3c(c4cc(Cl)ccc42)CNCC3)cc1 | 8 µg/mL (≈ 22.3 µM) | 4 µg/mL (≈ 11.1 µM) | 4 µg/mL (≈ 11.1 µM) | 4 µg/mL (≈ 11.1 µM) | 4 µg/mL (≈ 11.1 µM) | 4 µg/mL (≈ 11.1 µM) | 4 µg/mL (≈ 11.1 µM) |  | 
Fc1ccc2c(c1)c1c(n2CCCOc2ccc(Br)cc2)CCNC1 | 8 µg/mL (≈ 19.8 µM) | 2 µg/mL (≈ 4.96 µM) | 4 µg/mL (≈ 9.92 µM) | 4 µg/mL (≈ 9.92 µM) | 8 µg/mL (≈ 19.8 µM) | 16 µg/mL (≈ 39.7 µM) | 64 µg/mL (≈ 159 µM) |  | 
Fc1ccc2c(c1)c1c(n2CCCOc2ccccc2)CCNC1 | 8 µg/mL (≈ 24.7 µM) | 4 µg/mL (≈ 12.3 µM) | 16 µg/mL (≈ 49.3 µM) | 8 µg/mL (≈ 24.7 µM) | 8 µg/mL (≈ 24.7 µM) | 64 µg/mL (≈ 197 µM) | > 64 µg/mL |  | 

Other lines, results leading:

MIC80 (Trichophyton rubrum) | MIC80 (Nannizzia gypsea) | MIC80 (Pichia kudriavzevii) | MIC80 (Cryptococcus neoformans) | MIC80 (Candida albicans) | MIC80 (Candida tropicalis) | MIC80 (Candida parapsilosis) | MIC80 (Nakaseomyces glabratus) | MIC80 (Aspergillus fumigatus) | SMILES
8 µg/mL (≈ 23.2 µM) | 16 µg/mL (≈ 46.3 µM) |  | 16 µg/mL (≈ 46.3 µM) | 64 µg/mL (≈ 185 µM) |  | 32 µg/mL (≈ 92.7 µM) | 16 µg/mL (≈ 46.3 µM) | 32 µg/mL (≈ 92.7 µM) | CN1CCc2c(c3cc(Cl)ccc3n2Cc2cccc(Cl)c2)C1
> 64 µg/mL | 16 µg/mL (≈ 41.1 µM) |  | 8 µg/mL (≈ 20.5 µM) | 64 µg/mL (≈ 164 µM) |  | 16 µg/mL (≈ 41.1 µM) | 16 µg/mL (≈ 41.1 µM) | > 64 µg/mL | CN1CCc2c(c3cc(Cl)ccc3n2CCCOc2ccc(Cl)cc2)C1
> 64 µg/mL | 32 µg/mL (≈ 79.3 µM) |  | 16 µg/mL (≈ 39.7 µM) | 64 µg/mL (≈ 159 µM) |  | 64 µg/mL (≈ 159 µM) | 32 µg/mL (≈ 79.3 µM) | > 64 µg/mL | CCN1CCc2c(c3cc(Cl)ccc3n2CCCOc2ccc(Cl)cc2)C1
> 64 µg/mL | 64 µg/mL (≈ 246 µM) |  | 64 µg/mL (≈ 246 µM) | > 64 µg/mL |  | > 64 µg/mL | > 64 µg/mL | > 64 µg/mL | CN1CCc2c(c3cc(Cl)ccc3n2CC#N)C1
> 64 µg/mL | 16 µg/mL (≈ 41.1 µM) |  | 16 µg/mL (≈ 41.1 µM) | 32 µg/mL (≈ 82.2 µM) |  | 32 µg/mL (≈ 82.2 µM) | 32 µg/mL (≈ 82.2 µM) | > 64 µg/mL | CN1CCc2c(c3cccc(Cl)c3n2CCCOc2ccc(Cl)cc2)C1
> 64 µg/mL | > 64 µg/mL |  | > 64 µg/mL | > 64 µg/mL |  | > 64 µg/mL | > 64 µg/mL | > 64 µg/mL | CN1CCc2c(c3cc(Cl)ccc3n2C(=O)Cc2ccccc2)C1
32 µg/mL (≈ 89.1 µM) | > 64 µg/mL |  | 32 µg/mL (≈ 89.1 µM) | > 64 µg/mL |  | 64 µg/mL (≈ 178 µM) | 32 µg/mL (≈ 89.1 µM) | > 64 µg/mL | CN1CCc2c(c3cc(Cl)ccc3n2C(=O)c2ccc(Cl)cc2)C1
> 64 µg/mL | > 64 µg/mL |  | 32 µg/mL (≈ 89.1 µM) | > 64 µg/mL |  | 64 µg/mL (≈ 178 µM) | 32 µg/mL (≈ 89.1 µM) | > 64 µg/mL | CN1CCc2c(c3cc(Cl)ccc3n2C(=O)c2cccc(Cl)c2)C1
